Source: ChEMBL document CHEMBL1148448, “Fluorinated phenylcyclopropylamines. 1. Synthesis and effect of fluorine substitution at the cyclopropane ring on inhibition of microbial tyramine oxidase” (J Med Chem, 2004)

Tested on: tyramine oxidase (microbial, copper amine oxidase); call rule not given here
Assay: Compound was evaluated for inhibition of Microbial tyramine oxidase; ni denotes no inhibition detected at millimolar concentrations

Row | Compound | IC50
1 | Cl.NC1(c2ccccc2)CC1F (centres undefined) | Not Active
2 | Cl.NCC[C@@H]1C[C@]1(F)c1ccccc1 (relative stereo) | Not Active
3 | Cl.NC[C@@H]1C[C@]1(F)c1ccccc1 (relative stereo) | Not Active
4 | NC(=O)C1CC1(F)c1ccccc1 (trans isomer) | Not Active
